Reference: ChEMBL document CHEMBL2321733, “[3a,4]-Dihydropyrazolo[1,5a]pyrimidines: Novel, Potent, and Selective Phosphatidylinositol-3-kinase β Inhibitors” (ACS Med Chem Lett, 2013)
≈ marks a conversion by molar mass, not a printed value.

Experiments:
[1] = Plasma protein binding in mouse serum by equilibrium dialysis; assay type: ADME, cell-free; conditions: read-out: PPB (converted)
[2] = target: T1, Phosphatidylinositol 4,5-bisphosphate 3-kinase catalytic subunit beta isoform (Homo sapiens, UniProt P42338); experiment: Inhibition of PI3Kbeta human in PTEN-null MDA-MB-468 cells assessed as reduction of AKT phosphorylation at Ser 473 in absence of serum; assay type: cell-based
[3] = Plasma protein binding in human serum by equilibrium dialysis; assay type: ADME, cell-free; conditions: read-out: PPB (converted)
[4] = target: T1, Phosphatidylinositol 4,5-bisphosphate 3-kinase catalytic subunit beta isoform; experiment: Inhibition of PI3Kbeta human in PTEN-null MDA-MB-468 cells assessed as reduction of AKT phosphorylation at Ser 473 in presence of serum; assay type: cell-based
[5] = Plasma protein binding in rat serum by equilibrium dialysis; assay type: ADME, cell-free; conditions: read-out: PPB (converted)
[6] = target: T1, Phosphatidylinositol 4,5-bisphosphate 3-kinase catalytic subunit beta isoform; experiment: Inhibition of PI3Kbeta (unknown origin)
[7] = target: Phosphatidylinositol 4,5-bisphosphate 3-kinase catalytic subunit alpha isoform (Homo sapiens, UniProt P42336); experiment: Inhibition of PI3Kalpha (unknown origin)
[8] = target: T2, Phosphatidylinositol 4,5-bisphosphate 3-kinase catalytic subunit delta isoform (Homo sapiens, UniProt O00329); experiment: Inhibition of PI3Kdelta (unknown origin)
T2 sequence (O00329 whole entry): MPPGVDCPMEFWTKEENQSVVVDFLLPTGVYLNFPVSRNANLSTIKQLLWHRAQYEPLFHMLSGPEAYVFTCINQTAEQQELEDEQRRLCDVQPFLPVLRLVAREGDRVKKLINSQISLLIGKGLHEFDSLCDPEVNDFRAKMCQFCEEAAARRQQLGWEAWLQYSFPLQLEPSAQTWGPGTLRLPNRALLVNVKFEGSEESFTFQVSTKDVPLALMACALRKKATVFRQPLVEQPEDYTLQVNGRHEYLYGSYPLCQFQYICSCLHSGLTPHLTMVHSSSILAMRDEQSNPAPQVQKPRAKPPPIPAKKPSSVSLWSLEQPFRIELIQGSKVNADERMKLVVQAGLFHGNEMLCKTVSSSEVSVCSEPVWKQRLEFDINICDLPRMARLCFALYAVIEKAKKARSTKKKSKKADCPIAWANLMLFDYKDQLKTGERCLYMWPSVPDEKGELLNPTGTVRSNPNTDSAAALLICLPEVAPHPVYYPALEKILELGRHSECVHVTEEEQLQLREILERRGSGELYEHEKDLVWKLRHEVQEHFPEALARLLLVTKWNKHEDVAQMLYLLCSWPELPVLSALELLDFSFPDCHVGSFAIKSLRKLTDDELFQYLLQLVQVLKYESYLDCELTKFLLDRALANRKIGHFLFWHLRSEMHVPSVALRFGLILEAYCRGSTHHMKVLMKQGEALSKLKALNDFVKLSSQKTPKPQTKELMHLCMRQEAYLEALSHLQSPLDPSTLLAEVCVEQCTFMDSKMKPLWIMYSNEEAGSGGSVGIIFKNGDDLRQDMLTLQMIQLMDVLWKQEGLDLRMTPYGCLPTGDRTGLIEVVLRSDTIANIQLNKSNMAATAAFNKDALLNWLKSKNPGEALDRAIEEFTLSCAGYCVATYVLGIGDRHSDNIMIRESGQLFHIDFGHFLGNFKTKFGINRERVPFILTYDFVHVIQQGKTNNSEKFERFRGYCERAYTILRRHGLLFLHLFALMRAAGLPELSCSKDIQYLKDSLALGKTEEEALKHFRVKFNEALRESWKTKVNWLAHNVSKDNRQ

[9] = target: Phosphatidylinositol 4,5-bisphosphate 3-kinase catalytic subunit gamma isoform (Homo sapiens, UniProt P48736); experiment: Inhibition of PI3Kgamma (unknown origin)
[10] = Aqueous solubility of the compound; assay type: physicochemical
[11] = Clearance in mouse; assay type: ADME, organism-based; conditions: in vivo
[12] = Clearance in monkey; assay type: ADME, organism-based, Macaca mulatta; conditions: rhesus monkey, in vivo
Mus musculus = experiment: Dose normalized AUC in po dosed mouse; assay type: ADME, organism-based; conditions: in vivo
[13] = Clearance in rat; assay type: ADME, organism-based; conditions: in vivo
[14] = Permeability of the compound across MDCK cells; assay type: ADME, cell-based, Canis lupus familiaris; conditions: dog, read-out: permeability
[15] = target: T1, Phosphatidylinositol 4,5-bisphosphate 3-kinase catalytic subunit beta isoform; experiment: Inhibition of PI3Kbeta human in PTEN wild type HCC1954 cells assessed as reduction of AKT phosphorylation at Ser 473; assay type: cell-based
[16] = Oral bioavailability mouse; assay type: ADME, organism-based; conditions: in vivo

T1 sequence (P42338 whole entry, canonical isoform): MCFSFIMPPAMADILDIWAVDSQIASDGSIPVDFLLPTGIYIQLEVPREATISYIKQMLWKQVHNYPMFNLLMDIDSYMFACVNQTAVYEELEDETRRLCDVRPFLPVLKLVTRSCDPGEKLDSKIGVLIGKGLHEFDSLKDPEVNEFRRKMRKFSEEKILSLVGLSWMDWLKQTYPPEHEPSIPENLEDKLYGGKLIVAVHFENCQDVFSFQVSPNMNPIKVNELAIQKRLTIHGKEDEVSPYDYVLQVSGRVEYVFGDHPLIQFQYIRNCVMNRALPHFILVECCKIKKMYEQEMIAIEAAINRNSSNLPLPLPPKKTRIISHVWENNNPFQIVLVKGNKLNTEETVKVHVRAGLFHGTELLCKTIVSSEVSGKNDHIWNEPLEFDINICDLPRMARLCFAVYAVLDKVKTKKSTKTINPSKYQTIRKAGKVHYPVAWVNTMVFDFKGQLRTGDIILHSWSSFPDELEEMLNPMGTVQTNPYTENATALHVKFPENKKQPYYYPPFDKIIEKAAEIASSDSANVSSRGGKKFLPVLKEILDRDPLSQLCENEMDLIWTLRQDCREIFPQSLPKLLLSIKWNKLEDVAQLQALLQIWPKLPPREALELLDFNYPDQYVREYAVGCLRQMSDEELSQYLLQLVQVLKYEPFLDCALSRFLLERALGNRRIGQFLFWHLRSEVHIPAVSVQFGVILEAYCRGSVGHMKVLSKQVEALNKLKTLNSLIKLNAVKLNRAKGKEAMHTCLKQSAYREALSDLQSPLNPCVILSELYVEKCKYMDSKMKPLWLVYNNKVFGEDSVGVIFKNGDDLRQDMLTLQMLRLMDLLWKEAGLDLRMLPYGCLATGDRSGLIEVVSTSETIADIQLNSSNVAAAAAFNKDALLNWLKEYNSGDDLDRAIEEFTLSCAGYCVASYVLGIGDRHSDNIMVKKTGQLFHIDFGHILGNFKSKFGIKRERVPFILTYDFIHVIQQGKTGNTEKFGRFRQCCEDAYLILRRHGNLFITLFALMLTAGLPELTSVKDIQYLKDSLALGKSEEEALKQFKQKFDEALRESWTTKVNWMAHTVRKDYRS
Phosphatidylinositol 4,5-bisphosphate 3-kinase catalytic subunit gamma isoform, sequence (P48736 whole entry, canonical isoform): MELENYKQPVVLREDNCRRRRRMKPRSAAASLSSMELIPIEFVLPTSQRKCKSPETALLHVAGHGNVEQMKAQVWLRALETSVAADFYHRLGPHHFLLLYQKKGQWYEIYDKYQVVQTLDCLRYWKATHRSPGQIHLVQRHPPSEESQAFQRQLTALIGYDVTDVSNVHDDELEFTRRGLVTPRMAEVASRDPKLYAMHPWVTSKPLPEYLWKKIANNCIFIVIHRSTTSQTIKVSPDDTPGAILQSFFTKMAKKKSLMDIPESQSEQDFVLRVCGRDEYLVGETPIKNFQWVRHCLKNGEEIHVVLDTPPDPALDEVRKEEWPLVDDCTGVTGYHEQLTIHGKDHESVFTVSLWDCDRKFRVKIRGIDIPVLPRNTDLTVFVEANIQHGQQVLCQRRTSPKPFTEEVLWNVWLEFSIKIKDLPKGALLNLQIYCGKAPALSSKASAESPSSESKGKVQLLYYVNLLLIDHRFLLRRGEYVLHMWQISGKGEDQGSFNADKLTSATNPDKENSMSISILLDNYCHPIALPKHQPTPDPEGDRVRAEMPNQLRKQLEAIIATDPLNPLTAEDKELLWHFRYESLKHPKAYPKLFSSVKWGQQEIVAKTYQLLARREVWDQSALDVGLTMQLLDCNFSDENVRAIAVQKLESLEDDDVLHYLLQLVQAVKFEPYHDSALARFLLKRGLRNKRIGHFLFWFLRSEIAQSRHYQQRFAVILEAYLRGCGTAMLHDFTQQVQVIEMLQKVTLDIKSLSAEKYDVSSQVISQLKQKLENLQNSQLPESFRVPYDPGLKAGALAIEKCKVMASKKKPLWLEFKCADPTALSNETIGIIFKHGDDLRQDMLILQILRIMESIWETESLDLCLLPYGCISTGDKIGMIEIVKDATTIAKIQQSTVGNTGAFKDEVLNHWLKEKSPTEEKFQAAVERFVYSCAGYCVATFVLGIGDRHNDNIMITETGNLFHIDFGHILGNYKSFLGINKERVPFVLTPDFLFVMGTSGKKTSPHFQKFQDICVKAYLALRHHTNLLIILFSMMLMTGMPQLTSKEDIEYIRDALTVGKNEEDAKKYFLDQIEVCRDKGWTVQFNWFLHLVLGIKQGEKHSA
Phosphatidylinositol 4,5-bisphosphate 3-kinase catalytic subunit alpha isoform, sequence (P42336 whole entry, canonical isoform): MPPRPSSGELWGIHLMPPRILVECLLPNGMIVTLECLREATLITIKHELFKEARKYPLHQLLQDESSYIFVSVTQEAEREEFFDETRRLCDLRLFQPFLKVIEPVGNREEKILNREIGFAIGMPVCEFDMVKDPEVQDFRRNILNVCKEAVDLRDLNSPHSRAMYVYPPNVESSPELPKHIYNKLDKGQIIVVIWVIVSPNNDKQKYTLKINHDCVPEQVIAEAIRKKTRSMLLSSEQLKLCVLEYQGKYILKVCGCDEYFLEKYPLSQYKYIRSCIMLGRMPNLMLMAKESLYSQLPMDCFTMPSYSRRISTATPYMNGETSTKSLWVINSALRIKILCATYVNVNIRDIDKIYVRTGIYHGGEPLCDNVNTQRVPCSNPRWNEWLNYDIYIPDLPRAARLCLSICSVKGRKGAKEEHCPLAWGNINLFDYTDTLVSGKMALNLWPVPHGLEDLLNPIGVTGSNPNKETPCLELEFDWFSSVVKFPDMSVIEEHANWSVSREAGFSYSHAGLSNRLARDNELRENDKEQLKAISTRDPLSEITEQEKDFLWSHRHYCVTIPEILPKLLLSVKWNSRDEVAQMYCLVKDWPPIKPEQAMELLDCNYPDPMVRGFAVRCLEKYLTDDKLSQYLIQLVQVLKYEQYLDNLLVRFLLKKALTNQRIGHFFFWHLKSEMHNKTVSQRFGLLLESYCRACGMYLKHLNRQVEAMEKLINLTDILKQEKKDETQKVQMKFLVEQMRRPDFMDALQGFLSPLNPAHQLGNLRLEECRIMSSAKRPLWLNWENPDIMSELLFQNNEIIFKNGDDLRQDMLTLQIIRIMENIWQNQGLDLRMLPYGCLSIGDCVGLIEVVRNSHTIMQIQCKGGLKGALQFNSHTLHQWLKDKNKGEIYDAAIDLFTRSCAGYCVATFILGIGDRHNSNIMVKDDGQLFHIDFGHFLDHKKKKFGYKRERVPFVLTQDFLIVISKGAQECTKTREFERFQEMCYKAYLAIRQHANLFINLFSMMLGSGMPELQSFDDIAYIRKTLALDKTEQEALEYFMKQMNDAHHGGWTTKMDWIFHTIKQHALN

EC50 [4] [nM] | IC50 [6] [nM] | IC50 [7] [nM] | IC50 [8] [nM] | IC50 [9] [nM] | EC50 [15] [nM] | also measured | SMILES
15.8 | 0.631 | – | – | – | – | fraction unbound [1]: 0.118; EC50 [2]: 6.31 nM; fraction unbound [3]: 0.137; fraction unbound [5]: 0.254 | Cc1c(Cn2c(C)nc(=O)c3sc(N4CCOCC4)nc32)cccc1C(F)(F)F
– | > 3160 | > 1580 | > 631 | > 6310 | – | – | CNc1cc(N2CCOCC2)nc2c(Cc3cccc(C(F)(F)F)c3C)c(C)nn12
1580 | 0.398 | 316 | 25.1 | 316 | > 15800 | solubility [10]: 134 µM (≈ 54.5 µg/mL); clearance [11]: 3.7 mL/min/kg; clearance [12]: 0.33 mL/min/kg; AUC/dose (Mus musculus): 2321 ng·h/mL/mg/kg; clearance [13]: 6.5 mL/min/kg; Papp [14]: 75.3 ×10⁻⁶ cm/s; fraction unbound [1]: ≤ 0.001; EC50 [2]: 31.6 nM; fraction unbound [3]: ≤ 0.001; fraction unbound [5]: ≤ 0.001; bioavailability [16]: 51% | Cc1nn2c(O)cc(N3CCOCC3)nc2c1Cc1cccc(C(F)(F)F)c1C
1000 | 1 | 316 | 25.1 | 631 | > 31600 | – | Cc1nn2c(O)cc(N3CCOCC3)nc2c1Cc1cccc2ccccc12
10000 | 3.98 | > 1580 | 126 | 2510 | > 31600 | – | Cc1nn2c(O)cc(C3CCOCC3)nc2c1Cc1cccc(C(F)(F)F)c1C
– | 316 | 251 | 158 | 3160 | – | – | Cc1nn2c(O)cc(N3CCOCC3=O)nc2c1Cc1cccc(C(F)(F)F)c1C
– | 2.51 | 200 | 15.8 | 398 | – | – | Cc1nn2c(O)cc(N3CCOC(C)C3)nc2c1Cc1cccc(C(F)(F)F)c1C (centres undefined)
1000 | 5.01 | 316 | 20 | 501 | > 31600 | EC50 [2]: 63.1 nM | Cc1c(Cc2cnn3c(O)cc(N4CCOCC4)nc23)cccc1C(F)(F)F
3160 | 2.51 | 501 | 100 | 316 | > 31600 | EC50 [2]: 25.1 nM | Cc1c(Cc2cnn3c(O)cc(-c4ccncc4)nc23)cccc1C(F)(F)F
20000 | 0.631 | 158 | 20 | 398 | > 31600 | – | CCc1nn2c(O)cc(-c3ccncc3)nc2c1Cc1cccc(Cl)c1Cl
– | 12.6 | > 1580 | > 398 | > 7940 | – | – | CCc1nn2c(O)cc(C3CCOCC3)nc2c1Cc1cccc(Cl)c1Cl
5010 | 0.398 | 200 | 6.31 | 251 | > 31600 | – | Oc1cc(N2CCOCC2)nc2c(Cc3cccc(Cl)c3Cl)c(C(F)(F)F)nn12
– | 2.51 | 631 | 79.4 | 398 | – | – | Oc1cc(-c2ccncc2)nc2c(Cc3cccc(Cl)c3Cl)c(C(F)(F)F)nn12
– | 6.31 | 2510 | 100 | > 6310 | – | – | Oc1cc(C2CCOCC2)nc2c(Cc3cccc(Cl)c3Cl)c(C(F)(F)F)nn12
12600 | 1.26 | 158 | 25.1 | 501 | > 31600 | EC50 [2]: 158 nM | COc1nn2c(O)cc(-c3ccncc3)nc2c1Cc1cccc(Cl)c1Cl
2000 | 7.94 | 1580 | 631 | > 3980 | > 31600 | – | Nc1nn2c(O)cc(C3CCOCC3)nc2c1Cc1cccc(Cl)c1Cl
– | 1000 | > 5010 | > 631 | > 5010 | – | – | COc1cc(N2CCOCC2)nc2c(Cc3cccc(C(F)(F)F)c3C)cnn12
– | 316 | > 5010 | > 631 | > 5010 | – | – | Cc1c(Cc2cnn3c(Cl)cc(N4CCOCC4)nc23)cccc1C(F)(F)F
– | 794 | > 1580 | > 501 | 2000 | – | – | Cc1nn2ccc(C3CCOCC3)nc2c1Cc1cccc(C(F)(F)F)c1C
1000 | 5.01 | 1580 | 39.8 | > 6310 | > 31600 | – | Cc1nn2c(C(=O)O)cc(N3CCOCC3)nc2c1Cc1cccc(C(F)(F)F)c1C
> 31600 | 25.1 | > 6310 | > 631 | > 6310 | > 31600 | – | Cc1nn2c(C(N)=O)cc(N3CCOCC3)nc2c1Cc1cccc(C(F)(F)F)c1C
– | > 1260 | > 1000 | > 251 | > 3160 | – | – | Cc1nn2c(C#N)cc(N3CCOCC3)nc2c1Cc1cccc(C(F)(F)F)c1C
1000 | 39.8 | > 2000 | 158 | > 1480 | > 31600 | – | Cc1nn2c(N)cc(N3CCOCC3)nc2c1Cc1cccc(C(F)(F)F)c1C
– | 39.8 | > 1580 | 251 | > 6310 | – | – | Cc1nn2c(NO)cc(C3CCOCC3)nc2c1Cc1cccc(C(F)(F)F)c1C
– | 1260 | > 1580 | > 631 | 5010 | – | – | Cc1nn2c(NCCO)cc(C3CCOCC3)nc2c1Cc1cccc(C(F)(F)F)c1C
– | > 1260 | > 2000 | > 631 | > 5010 | – | – | CC(=O)Nc1cc(N2CCOCC2)nc2c(Cc3cccc(C(F)(F)F)c3C)c(C)nn12
> 31600 | 20 | > 6310 | > 631 | > 6310 | > 31600 | – | Cc1nn2c(NC(N)=O)cc(N3CCOCC3)nc2c1Cc1cccc(C(F)(F)F)c1C
– | 63.1 | > 2000 | > 631 | > 5010 | – | – | Cc1c(Cc2c(=O)[nH]n3c(=O)cc(C4CCOCC4)[nH]c23)cccc1C(F)(F)F
